Experimental data: the supplement of paper PMC10307832

Legend:
Assay in all cases: relative viability (nuclei count vs DMSO), 5 days (fraction); higher = more cells survive
[1] = system: ABC-1
Outline: (§1)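 Each reported value is a median over duplicate plates. It expresses relative viability: treated-well nuclei count divided by vehicle-well nuclei count. Lung cancer cell lines in 1536-well plates were dosed by pin tool a day after seeding, alone with one drug or with a fixed anchor-drug dose plus five library-drug doses (not always all listed) in √10 steps, and nuclei were counted after 5 days.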

[2] = system: CAL-12T
Outline: as §1

[3] = system: ChaGo-K-1
Outline: as §1

[4] = system: EPLC-272H
Outline: as §1

[5] = system: LC-2-ad
Outline: as §1

[6] = system: LOU-NH91
Outline: as §1

[7] = system: LU99A
Outline: as §1

[8] = system: NCI-H1395
Outline: as §1

[9] = system: NCI-H1651
Outline: as §1

[10] = system: NCI-H1734
Outline: as §1

[11] = system: NCI-H1755
Outline: as §1

[12] = system: NCI-H1793
Outline: as §1

[13] = system: NCI-H1944
Outline: as §1

[14] = system: NCI-H2087
Outline: as §1

[15] = system: NCI-H2170
Outline: as §1

[16] = system: NCI-H2228
Outline: as §1

[17] = system: NCI-H2405
Outline: as §1

[18] = system: NCI-H3122
Outline: as §1

[19] = system: NCI-H460
Outline: as §1

[20] = system: PC-3 [JPC-3]
Outline: as §1

[21] = system: RERF-LC-KJ
Outline: as §1

[22] = system: UMC-11
Outline: as §1

COc1cc(N2CCC(C(N)=O)CC2)ccc1Nc1nc(N)c(Cl)c(Nc2ccccc2S(=O)(=O)C(C)C)n1 [HG-5-88-01] + CCNC(=O)c1noc(-c2cc(C(C)C)c(O)cc2O)c1-c1ccc(CN2CCOCC2)cc1 [Luminespib] (partner 0.01 µM)
relative viability ([1]; first compound 0.04 µM): 0.406 | relative viability ([1]; first compound 0.1265 µM): 0.86 | relative viability ([1]; first compound 0.4 µM): 0.345 | relative viability ([1]; first compound 1.265 µM): 0.296 | relative viability ([1]; first compound 4 µM): 0.587 | relative viability ([2]; first compound 0.04 µM): 0.583 | relative viability ([2]; first compound 0.1265 µM): 1.02 | relative viability ([2]; first compound 0.4 µM): 0.36 | relative viability ([2]; first compound 1.265 µM): 0.392 | relative viability ([2]; first compound 4 µM): 0.255 | relative viability ([3]; first compound 0.04 µM): 0.572 | relative viability ([3]; first compound 0.1265 µM): 0.682 | relative viability ([3]; first compound 0.4 µM): 0.516 | relative viability ([3]; first compound 1.265 µM): 0.66 | relative viability ([3]; first compound 4 µM): 0.733 | relative viability ([4]; first compound 0.04 µM): 0.384 | relative viability ([4]; first compound 0.1265 µM): 0.269 | relative viability ([4]; first compound 0.4 µM): 0.347 | relative viability ([4]; first compound 1.265 µM): 0.181 | relative viability ([4]; first compound 4 µM): 0.204 | relative viability ([5]; first compound 0.04 µM): 1.05 | relative viability ([5]; first compound 0.1265 µM): 1.17 | relative viability ([5]; first compound 0.4 µM): 1.13 | relative viability ([5]; first compound 1.265 µM): 0.812 | relative viability ([5]; first compound 4 µM): 1.06 | relative viability ([6]; first compound 0.04 µM): 0.337 | relative viability ([6]; first compound 0.1265 µM): 0.338 | relative viability ([6]; first compound 0.4 µM): 0.331 | relative viability ([6]; first compound 1.265 µM): 0.35 | relative viability ([6]; first compound 4 µM): 0.356 | relative viability ([7]; first compound 0.04 µM): 0.214 | relative viability ([7]; first compound 0.1265 µM): 0.217 | relative viability ([7]; first compound 0.4 µM): 0.288 | relative viability ([7]; first compound 1.265 µM): 0.275 | relative viability ([7]; first compound 4 µM): 0.252 | relative viability ([8]; first compound 0.04 µM): 0.723 | relative viability ([8]; first compound 0.1265 µM): 0.611 | relative viability ([8]; first compound 0.4 µM): 0.669 | relative viability ([8]; first compound 1.265 µM): 0.532 | relative viability ([8]; first compound 4 µM): 0.989 | relative viability ([9]; first compound 0.04 µM): 0.87 | relative viability ([9]; first compound 0.1265 µM): 0.976 | relative viability ([9]; first compound 0.4 µM): 1.17 | relative viability ([9]; first compound 1.265 µM): 0.771 | relative viability ([9]; first compound 4 µM): 0.934 | relative viability ([10]; first compound 0.04 µM): 0.214 | relative viability ([10]; first compound 0.1265 µM): 0.166 | relative viability ([10]; first compound 0.4 µM): 0.171 | relative viability ([10]; first compound 1.265 µM): 0.19 | relative viability ([10]; first compound 4 µM): 0.171 | relative viability ([11]; first compound 0.04 µM): 0.401 | relative viability ([11]; first compound 0.1265 µM): 0.32 | relative viability ([11]; first compound 0.4 µM): 0.427 | relative viability ([11]; first compound 1.265 µM): 0.385 | relative viability ([11]; first compound 4 µM): 0.599 | relative viability ([12]; first compound 0.1265 µM): 0.168 | relative viability ([12]; first compound 0.4 µM): 0.198 | relative viability ([12]; first compound 4 µM): 0.272 | relative viability ([13]; first compound 0.04 µM): 0.808 | relative viability ([13]; first compound 0.1265 µM): 0.821 | relative viability ([13]; first compound 0.4 µM): 0.759 | relative viability ([13]; first compound 1.265 µM): 0.673 | relative viability ([13]; first compound 4 µM): 0.729 | relative viability ([14]; first compound 0.04 µM): 0.173 | relative viability ([14]; first compound 0.1265 µM): 0.228 | relative viability ([14]; first compound 0.4 µM): 0.173 | relative viability ([14]; first compound 1.265 µM): 0.19 | relative viability ([14]; first compound 4 µM): 0.204 | relative viability ([15]; first compound 0.04 µM): 0.749 | relative viability ([15]; first compound 0.1265 µM): 0.746 | relative viability ([15]; first compound 0.4 µM): 0.666 | relative viability ([15]; first compound 1.265 µM): 0.511 | relative viability ([15]; first compound 4 µM): 0.784 | relative viability ([16]; first compound 0.04 µM): 0.117 | relative viability ([16]; first compound 0.1265 µM): 0.149 | relative viability ([16]; first compound 0.4 µM): 0.122 | relative viability ([16]; first compound 1.265 µM): 0.109 | relative viability ([16]; first compound 4 µM): 0.116 | relative viability ([17]; first compound 0.04 µM): 0.872 | relative viability ([17]; first compound 0.1265 µM): 0.692 | relative viability ([17]; first compound 0.4 µM): 0.594 | relative viability ([17]; first compound 1.265 µM): 0.457 | relative viability ([17]; first compound 4 µM): 0.673 | relative viability ([18]; first compound 0.04 µM): 0.0748 | relative viability ([18]; first compound 0.1265 µM): 0.11 | relative viability ([18]; first compound 0.4 µM): 0.106 | relative viability ([18]; first compound 1.265 µM): 0.115 | relative viability ([18]; first compound 4 µM): 0.0981 | relative viability ([19]; first compound 0.04 µM): 0.0373 | relative viability ([19]; first compound 0.1265 µM): 0.0308 | relative viability ([19]; first compound 0.4 µM): 0.0242 | relative viability ([19]; first compound 1.265 µM): 0.0363 | relative viability ([19]; first compound 4 µM): 0.0375 | relative viability ([20]; first compound 0.04 µM): 0.709 | relative viability ([20]; first compound 0.1265 µM): 0.656 | relative viability ([20]; first compound 0.4 µM): 0.724 | relative viability ([20]; first compound 1.265 µM): 0.744 | relative viability ([20]; first compound 4 µM): 0.743 | relative viability ([21]; first compound 0.04 µM): 1.4 | relative viability ([21]; first compound 0.1265 µM): 1.33 | relative viability ([21]; first compound 0.4 µM): 1.25 | relative viability ([21]; first compound 1.265 µM): 1.23 | relative viability ([21]; first compound 4 µM): 0.963 | relative viability ([22]; first compound 0.04 µM): 0.914 | relative viability ([22]; first compound 0.1265 µM): 1.08 | relative viability ([22]; first compound 1.265 µM): 0.983 | relative viability ([22]; first compound 4 µM): 1.12
